From PubChem BioAssay (NCI)
Several values for one entry are separate records, joined by “and”; a condition that tells them apart may be missing. Equal entries are not always repeated.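 Each compound was tested at five concentrations against cells in 96-well plates for 48 hours. At the GI50, growth is halved. TGI denotes the concentration required for complete inhibition of growth.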

Tests used:
Assay in all cases: inhibition of tumour cell growth, NCI panel, 48 h
NCI-H226 lung = system: NCI-H226 lung
RXF 393 renal = system: RXF 393 renal
A498 renal = system: A498 renal
NCI-H460 lung = system: NCI-H460 lung
SNB-78 CNS = system: SNB-78 CNS
CCRF-CEM leukemia = system: CCRF-CEM leukemia
EKVX NSCLC = system: EKVX NSCLC
MDA-N = system: MDA-N
PC-3 prostate = system: PC-3 prostate
SNB-75 CNS = system: SNB-75 CNS

SMILES | GI50 (NCI-H226 lung) | TGI (NCI-H226 lung) | GI50 (RXF 393 renal) | TGI (RXF 393 renal) | GI50 (A498 renal) | TGI (A498 renal) | GI50 (NCI-H460 lung) | TGI (NCI-H460 lung) | GI50 (SNB-78 CNS) [µg/mL] | TGI (SNB-78 CNS) | GI50 (CCRF-CEM leukemia) [µg/mL] | TGI (CCRF-CEM leukemia) | GI50 (EKVX NSCLC) | TGI (EKVX NSCLC) | GI50 (MDA-N) [µg/mL] | TGI (MDA-N) | GI50 (PC-3 prostate) [µg/mL] | TGI (PC-3 prostate) | GI50 (SNB-75 CNS) | TGI (SNB-75 CNS) [µM]
CCc1ccc([O-])c(C=NCCCN(C)CCCN=Cc2cc(C)ccc2[O-])c1.[Co+3].[N-]=[N+]=[N-] | 50 µg/mL and 32.5 µg/mL | 50 µg/mL and 88.6 µg/mL | 5.76 µg/mL and 20.4 µg/mL | 35.5 µg/mL and 46 µg/mL | 50 µg/mL and 79.7 µg/mL | 50 µg/mL and 127 µg/mL | 50 µg/mL and > 150 µg/mL | 50 µg/mL and > 150 µg/mL | > 150 | > 150 µg/mL | > 150 | > 150 µg/mL | 50 µg/mL and 103 µg/mL | 50 µg/mL and > 150 µg/mL | 50 | 50 µg/mL | 29.5 | 50 µg/mL | 1.38 µg/mL and 10 µg/mL | –
O=C1C(Br)=CC2(C=C1Br)CCNc1c(O)c3c4c(c12)=NCCC=4C=N3 | – | 2.74 µM | – | 0.217 µM | – | 3.56 µM | – | 1.64 µM | – | 0.656 µM | – | 0.0734 µM | – | 0.521 µM | – | 0.245 µM | – | 0.993 µM | – | 2.16
COc1ccc(/C=C2\CCC(Cc3ccccc3)(CN(C)C)C2=O)cc1 (stereo not drawn) | – | > 96.3 µM | – | > 72.9 µM | – | > 100 µM | – | > 100 µM | – | > 100 µM | – | 72.3 µM | – | > 100 µM | – | > 100 µM | – | > 100 µM | – | > 100
CCCCCCCCCCCC(=O)OC(COC(N)=O)COc1ccc(Cl)cc1 (stereo not drawn) | – | 46.1 µM | – | 43.9 µM | – | > 100 µM | – | 47.4 µM | – | 84.8 µM | – | 35.9 µM | – | 92.1 µM | – | – | – | – | – | > 100
CC1CC(c2ccc(Cl)c(Cl)c2)=Nc2ccccc2S1 (stereo not drawn) | – | > 100 µM | – | > 100 µM | – | > 100 µM | – | > 100 µM | – | > 100 µM | – | > 100 µM | – | > 100 µM | – | – | – | – | – | > 100
CCCCC(C(=O)CCC(=O)Nc1ccc(Cl)cc1)C(=O)C(C)C (stereo not drawn) | – | > 100 µM | – | > 100 µM | – | > 100 µM | – | > 100 µM | – | > 100 µM | – | > 100 µM | – | > 100 µM | – | – | – | – | – | > 100
